Experiments:
in vivo [1] = conditions: Sprague-Dawley, rat
in vivo [2] = conditions: Sprague-Dawley, rat, po, 10 mg/kg
in vivo [3] = conditions: Sprague-Dawley, rat, iv, 5 mg/kg
[4] = Metabolic stability in Beagle dog hepatocytes; format: ADME, cell-based, Canis lupus familiaris, Hepatocyte
Hepatocyte [5] = test: Metabolic stability in human hepatocytes; format: ADME, cell-based
[6] = Metabolic stability in rhesus monkey hepatocytes; format: ADME, cell-based, Macaca mulatta, Hepatocyte
[7] = Metabolic stability in cynomolgus monkey hepatocytes; format: ADME, cell-based, Macaca fascicularis, Hepatocyte
Hepatocyte [8] = test: Metabolic stability in Sprague-Dawley rat hepatocytes; format: ADME, cell-based
[9] = Volume of distribution at steady state in rhesus monkey at 1 mg/kg, po and 0.5 mg/kg, iv; format: ADME, organism-based, Macaca fascicularis; conditions: cynomolgus monkey, in vivo, read-out: Vdss
[10] = Clearance in rhesus monkey at 1 mg/kg, po and 0.5 mg/kg, iv; format: ADME, organism-based, Macaca fascicularis; conditions: cynomolgus monkey, in vivo
[11] = Terminal half life in cynomolgus monkey at 1 mg/kg, po and 0.5 mg/kg, iv; format: ADME, organism-based, Macaca fascicularis; conditions: in vivo
[12] = Volume of distribution at steady state in Sprague-Dawley rat at 10 mg/kg, po and 5 mg/kg, iv; format: ADME, organism-based; conditions: in vivo, read-out: Vdss
[13] = Oral bioavailability in Beagle dog at 1 mg/kg; format: ADME, organism-based, Canis lupus familiaris; conditions: in vivo
[14] = Volume of distribution at steady state in cynomolgus monkey at 1 mg/kg, po and 0.5 mg/kg, iv; format: ADME, organism-based, Macaca fascicularis; conditions: in vivo, read-out: Vdss
[15] = Oral bioavailability in cynomolgus monkey at 1 mg/kg; format: ADME, organism-based, Macaca fascicularis; conditions: in vivo
[16] = Clearance in Beagle dog at 1 mg/kg, po and 0.5 mg/kg, iv; format: ADME, organism-based, Canis lupus familiaris; conditions: in vivo
[17] = Clearance in cynomolgus monkey at 1 mg/kg, po and 0.5 mg/kg, iv; format: ADME, organism-based, Macaca fascicularis; conditions: in vivo
[18] = Terminal half life in Beagle dog at 1 mg/kg, po and 0.5 mg/kg, iv; format: ADME, organism-based, Canis lupus familiaris; conditions: in vivo
[19] = Terminal half life in rhesus monkey at 1 mg/kg, po and 0.5 mg/kg, iv; format: ADME, organism-based, Macaca fascicularis; conditions: cynomolgus monkey, in vivo
[20] = Oral bioavailability in rhesus monkey at 1 mg/kg; format: ADME, organism-based, Macaca mulatta; conditions: in vivo
[21] = Volume of distribution at steady state in Beagle dog at 1 mg/kg, po and 0.5 mg/kg, iv; format: ADME, organism-based, Canis lupus familiaris; conditions: in vivo, read-out: Vdss

| SMILES | half-life (in vivo [1]) [h] | bioavailability (in vivo [2]) [%] | clearance (in vivo [3]) [mL/min/kg] | Stability [4] | Stability (Hepatocyte [5]) | Stability [6] | Stability [7] | Stability (Hepatocyte [8]) | further results |
| --- | --- | --- | --- | --- | --- | --- | --- | --- | --- |
| CN([C@@H]1CCc2c(CC(=O)O)c3cccc(F)c3n2C1)S(=O)(=O)c1ccc(F)cc1 | 16 | 62 | 0.4 | – | – | – | – | – | – |
| CN([C@@H]1CCc2c(CC(=O)O[C@@H]3O[C@H](C(=O)O)[C@@H](O)[C@H](O)[C@H]3O)c3ccccc3n2C1)S(=O)(=O)c1ccc(F)cc1 | – | – | – | Stable | Stable | Stable | Stable | Stable | – |
| CN([C@@H]1CCc2c(CC(=O)O)c3ccccc3n2C1)S(=O)(=O)c1ccc(F)cc1 [MK-7246] | 5.6 | 107 | 2.2 | Stable | Stable | Stable | Stable | Stable | Vd [9]: 2.6 L/kg; clearance [10]: 6.9 mL/min/kg; half-life [11]: 11 h; Vd [12]: 0.98 L/kg; bioavailability [13]: 5.6%; Vd [14]: 0.5 L/kg; bioavailability [15]: 10%; clearance [16]: 15 mL/min/kg; clearance [17]: 4.8 mL/min/kg; half-life [18]: 8.4 h; half-life [19]: 8.1 h; bioavailability [20]: 57%; Vd [21]: 2.3 L/kg |
